PMC4398456, “Evidence for a Novel Mechanism of Antimicrobial Action of a Cyclic R-,W-Rich Hexapeptide” (PLoS ONE, 2015)
Converted amounts (≈) assume the structure as drawn. Non-standard residues stand in square brackets, D forms with d. Residues, ends and D or L forms follow the SMILES beside them. *: point of attachment. NBD = O=[N+]([O-])c1ccc(*)c2nonc12; Dap = NC[C@H](N)C(=O)O

Assays:
[1] = tested on: E. coli L-WF+; experiment: HPLC uptake study with o-nitroaniline modification; assay type: cell-based; conditions: 10^9 cells/ml DPBSG, 24 μM peptide, 30 min, 37°C; o-nitroaniline treatment; fluorescence HPLC; three independent experiments in triplicates
Excerpt: (§1) As the cytoplasmic membrane of bacteria has been identified as the target of cWFW, cell wall-deficient L-form strains derived from E. coli (LWF+) and B. subtilis (L-170) were used to quantify peptide uptake into the cytoplasm. The approach, originally developed for the investigation of peptide uptake into eukaryotic cells, is based on chemical modification of the amino group of lysine side chains with o-nitroaniline and fluorescence-based HPLC detection of non-modified and modified sequences. Fluorescence labelling was necessary for quantification of cyclic hexapeptide uptake.
(§2) Cells were cultivated to an OD550 ± 0.8 in conical flasks as described above. After harvesting and centrifugation at 2000 × g (Sigma 3K12, Germany) for 12 min and removal of culture medium, cells were washed twice with DPBSG (DPBS containing 1g/l glucose). […] Protein content was determined with BCA Protein Assay Kit (Thermo Scientific, Germany) according to manufacturer’s instructions. […]
(§3) HPLC analysis was performed as described before using a Jasco LC-2000 Plus (U.S.) with a ProntoSil 300-5-C18-H column (250 × 4.6 mm, 5 μm) (Bischoff Chromatography, Germany) and a precolumn with PolyenCap A300, 10 μm. Peptide amounts were quantified via calibration curves for carboxyfluorescein (ex 445 nm, em 520 nm, gain 1000) and NBD fluorescence (ex 470 nm, em 520 nm, gain 1000), respectively.

[2] = tested on: B. subtilis L-170; experiment: HPLC uptake study with o-nitroaniline modification; assay type: cell-based; conditions: 10^9 cells/ml DPBSG, 24 μM peptide, 30 min, 37°C; o-nitroaniline treatment; fluorescence HPLC; three independent experiments in triplicates
Excerpt: as §1, §2, §3

[3] = tested on: E. coli DH5α; conditions: microdilution; reported before; cited from earlier work
[4] = tested on: B. subtilis DSM 347; conditions: microdilution; reported before; cited from earlier work
[5] = tested on: E. coli; experiment: Peptide localisation by fluorescence microscopy (CLSM); assay type: cell-based; conditions: 12 μM peptide, 30 minutes, LB-agarose pad; at least three independent experiments
Description: Cells from an overnight culture were diluted 1:100 in fresh medium and grown to mid-log phase. LB-agarose pads were prepared by adding 1.5% agarose to LB medium and heated until the agarose was completely dissolved. In the case of translocation experiments the solution was slightly cooled down before peptides were added at a final concentration of 12 μM. 100 μl LB-agarose was applied to a cover slip and stored at 8°C in the dark for ~30 minutes. The hardened LB-pad was placed on top of 10 μl of bacterial culture (OD600 0.4) and live cell imaging was performed for up to 100 minutes in a heat controlled chamber to avoid desiccation.
Specific staining of CL with NAO has been shown before and is neither influenced by fixation nor depolarisation of the membrane. The emission shift from green to red fluorescence (513 nm to 640 nm) was reported to be exclusive for binding to CL and is caused by narrow stacking of dye molecules. Images were captured using a Zeiss Axiovert M200 inverted fluorescence microscope and an LSM 510 ConfoCor2 (Germany) with plan-apochromat 63, 100×/1.4 objective, respectively, and processed with ImageJ.

[6] = tested on: B. subtilis; experiment: as above; assay type: cell-based; conditions: 12 μM peptide, 30 minutes, LB-agarose pad; at least three independent experiments

Compound | fraction of unmodified peptide, inaccessible for chemical modification, of the total cell-bound peptides [1] | fraction of unmodified peptide, inaccessible for chemical modification, of the total cell-bound peptides [2] | MIC E. coli DH5α [3] | MIC B. subtilis DSM 347 [4] | peptide localisation in live cells [5] | peptide localisation in live cells [6]
N=C(N)NCCC[C@@H]1NC(=O)[C@H](CCCCN)NC(=O)[C@H](Cc2c[nH]c3ccccc23)NC(=O)[C@H](CNc2ccc([N+](=O)[O-])c3nonc23)NC(=O)[C@H](Cc2c[nH]c3ccccc23)NC(=O)[C@H](CCCCN)NC1=O [cR2[NBD]] (cyclo(KRKW[Dap](NBD)W)) | about 20% | ~30% | 50 µM (≈ 51.7 µg/mL) | 12 µM (≈ 12.4 µg/mL) |  | 
N=C(N)NCCC[C@@H]1NC(=O)[C@H](CCCNC(=N)N)NC(=O)[C@H](Cc2c[nH]c3ccccc23)NC(=O)[C@H](CNc2ccc([N+](=O)[O-])c3nonc23)NC(=O)[C@H](Cc2c[nH]c3ccccc23)NC(=O)[C@H](CCCNC(=N)N)NC1=O [cW[NBD]W] (cyclo(RRRW[Dap](NBD)W)) |  |  | 50 µM (≈ 54.5 µg/mL) | 25 µM (≈ 27.3 µg/mL) | not detectable within the cytoplasm | not detectable within the cytoplasm
